Test results from PMC10099721, “Substrate Induced Movement of the Metal Cofactor between Active and Resting State” (Angewandte Chemie (International Ed. in English), 2022).

Tests used:
Assay type in all cases: binding
[1] = biological target: T1, SwHKA (hydroxyketoacid aldolase from Sphingomonas wittichii RW1) (Rhizorhabdus wittichii, UniProt A0A9J9HGY6, S116C); experiment: nanoDSF melting temperature; conditions: absolute Tm, not a shift; MgCl2 10 mM, hydroxypyruvate 20 mM, Hepes 20 mM pH 7.5
T1 construct: gene Swit_5035; N-terminal His6-tag, E. coli BL21(DE3), 251 residues per monomer, homohexamer (trimer of domain-swapped dimers), divalent metal dependent

[2] = biological target: T2, SwHKA (hydroxyketoacid aldolase from Sphingomonas wittichii RW1) (Rhizorhabdus wittichii, UniProt A0A9J9HGY6, F210W); experiment: X-ray crystal structure, […] A, soaked crystal; conditions: MgCl2 soak; bound in monomer B only; PDB id printed as 7OBU in the text but 7O87 (as F201W-HPA) in the Figure 2 legend
T2 construct: gene Swit_5035; N-terminal His6-tag, E. coli BL21(DE3), 251 residues per monomer, homohexamer (trimer of domain-swapped dimers), divalent metal dependent

[3] = biological target: T3, SwHKA (hydroxyketoacid aldolase from Sphingomonas wittichii RW1) (Rhizorhabdus wittichii, UniProt A0A9J9HGY6, S116A); experiment: X-ray crystal structure; conditions: bound to the active-state metal, distorted geometry
T3 construct: gene Swit_5035; N-terminal His6-tag, E. coli BL21(DE3), 251 residues per monomer, homohexamer (trimer of domain-swapped dimers), divalent metal dependent

[4] = biological target: T4, SwHKA (hydroxyketoacid aldolase from Sphingomonas wittichii RW1) (Rhizorhabdus wittichii, UniProt A0A9J9HGY6); experiment: X-ray crystal structure; conditions: with hydroxypyruvate in the active site; H-bonds to R69 and R120'
T4 construct: gene Swit_5035; N-terminal His6-tag, E. coli BL21(DE3), 251 residues per monomer, homohexamer (trimer of domain-swapped dimers), divalent metal dependent
T4 sequence (A0A9J9HGY6 whole entry, the tested form may be a part): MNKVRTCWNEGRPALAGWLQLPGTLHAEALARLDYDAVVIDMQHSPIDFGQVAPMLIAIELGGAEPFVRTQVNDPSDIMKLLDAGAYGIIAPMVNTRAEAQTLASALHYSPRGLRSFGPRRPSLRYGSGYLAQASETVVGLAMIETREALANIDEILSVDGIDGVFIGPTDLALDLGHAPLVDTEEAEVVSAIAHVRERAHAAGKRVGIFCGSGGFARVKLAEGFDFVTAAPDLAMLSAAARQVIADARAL

T3 sequence (A0A9J9HGY6 whole entry S116A, the tested form may be a part): as the sequence (A0A9J9HGY6 whole entry, the tested form may be a part) above, with S116A counted along it
T1 sequence (A0A9J9HGY6 whole entry S116C, the tested form may be a part): as the sequence (A0A9J9HGY6 whole entry, the tested form may be a part) above, with S116C counted along it
T2 sequence (A0A9J9HGY6 whole entry F210W, the tested form may be a part): as the sequence (A0A9J9HGY6 whole entry, the tested form may be a part) above, with F210W counted along it

Tm [1] | Compound | X-ray crystal structure, 1.2 A, soaked crystal [2] | X-ray crystal structure [3] | X-ray crystal structure [4]
73 °C | O=C(O)C(=O)CO [hydroxypyruvate] | crystal structure of variant F210W soaked with MgCl2 and hydroxypyruvate could now be solved | showed a strangely distorted geometry (Figure S13, S116A‐HPA PDBID 7NNK) | 
 | O=C[C@H](O)CO [D-glyceraldehyde] |  |  | Close‐up view of the active site of SwHKA with DGA bound (PDBID 8ADQ)
